{"source": "paper PMC9481570", "about": "“A small molecule antagonist of SMN disrupts the interaction between SMN and RNAP II” (Nature Communications, 2022)", "system": "GEMIN1", "experiment": "AP-MS chemical proteomics, GEMIN1", "assay_type": "binding, human", "settings": "biotin-Cmpd 1 pulldown, competition with 200 μM compound 1 relative to DMSO, U2OS lysate", "description": "The samples for AP-MS were prepared following pulldown procedure as previously described with minor modifications. Briefly, U2OS cells were lysed in RIPA buffer and the cell lysate was equally divided into two groups: (1) DMSO group (control group): the cell lysate was incubated with 20 μM biotin-labeled compound 1; (2) Cpmd 1 group (sample group): the cell lysate was incubated with 20 μM biotin-labeled compound 1 and 200 μM free compound 1. Each group contains three biological replicates. They were incubated overnight at 4 °C, then 30 μL streptavidin beads (Thermo Fisher, 20353) was added and incubated at 4 °C for 1 h. The beads were then washed with RIPA buffer for 3 times, 10 min/time. […]\nSamples were analyzed by nanoLC-MS/MS (nanoRSLC, Thermo Fisher) using an Aurora series (Ion Opticks) reversed phase HPLC column (25 cm length × 75 µm inner diameter) and directly injected to an Orbitrap Eclipse (Thermo Fisher) using a 120 min gradient (mobile phase A = 0.1% formic acid, mobile phase B = 99.9% acetonitrile with 0.1% formic acid; hold 2% B for 5 min, 2–6% B in 0.1 min, 6–25% in 100 min, 25–50% in 15 min) at a flow rate of 350 nL/min. Eluted peptide ions were analyzed using a data-dependent acquisition (DDA) method with resolution settings of 120,000 and 15,000 (at m/z 200) for MS1 and MS2 scans, respectively. […]"}
{"compound": "Cn1c2c(c(=N)c3c1CCC3)CCC2", "note": "[Compound 1, 4-methyl-2,3,4,5,6,7-hexahydrodicyclopenta[b,e]pyridin-8(1H)-imine]", "values": [{"measurement": "log2 FC (Cmpd 1/DMSO), GEMIN1", "result": "−6.9"}]}
